The results in this text go back to patent US20060104901A1, “Preventing or treating epithelial tissue damage or hair loss” (priority 2002, published 2006).

The test system of this test is CD1d gene transcription. Put plainly: CD1d mRNA by Real Time PCR in primary human keratinocytes under H2O2 chemical stress. It counts as cell-based. The note with it: primary human keratinocytes exposed to 300 μM H2O2, KGM with vs without hydrocortisone, RNA at different times after treatment, FIG. 11. How it is done: Primary human keratinocytes were grown in complete KGM before being exposed to 300 μM H2O2 as a stress factor. 48 hours after seeding, KGM medium was replaced by KGM without hydrocortisone and cultures were treated with 300 μM of H2O2. Total RNA was extracted at different time after treatment and CD1d mRNA quantified by Real Time PCR.
For Taq Man Assays, Applied Biosystems recommends to use 10 to 100 ng of initial RNA quantity per well. Consequently, first strand cDNA synthesis was performed in a 20 μl volume using 1 μg of total RNA and […] of random hexamers following the manufacturer's recommendations (Superscript™ First-Strand Synthesis System for RT-PCR, 11904-018, Invitrogen). 1 μl of the resulting cDNA samples was used for amplification by Real Time PCR. […]
All the cDNA samples were tested in triplicate. […] The plate was sealed, centrifuged at 2000 rpm for 30 seconds and placed in a 5700 Sequence Detection System for thermal cycling and fluorescence analysis using the following PCR program: […]
Results were analyzed using the GeneAmp® 5700 SDS software. […]
The gene expression fold changes obtained in the test condition compared to the control condition were determined by the comparative Ct method using the following formula: [formula] […]

Take `C[C@]12CCC(=O)C=C1CC[C@@H]1[C@@H]2[C@@H](O)C[C@@]2(C)[C@H]1CC[C@]2(O)C(=O)CO` [Hydrocortisone]: the “CD1d gene transcription (CD1d mRNA, fold change by comparative Ct method)” value was “able to down-regulate CD1d expression”. The “CD1d gene transcription (CD1d mRNA, fold change by comparative Ct method)” value (listed as hydrocortisone) is “suppresses CD1d transcription”.
